Assay results taken from patent US11945822B2, “Pyrazolo-triazine and/or pyrazolo-pxrimidine derivatives as selective inhibitor of cyclin dependent kinase” (QURIENT CO., LTD., priority 2018, dated 2024).

Test system: MV4-11
Assay: Cellular MV4-11 viability assay (CellTiter-Glo, 72 hours)
Type: cell-based
Details: Homo sapiens
Description: (§1) All cell lines were routinely tested for mycoplasma.
(§2) The effect of the CDK7 inhibitor to inhibit the growth of target cancer cells was evaluated through the 72 hours time period of viability assay. Briefly, the candidate cell line ware plated in 96 well plate at the following density of cells respectively. […] DMSO solvent without compound served as a control and final DMSO concentration less than 0.1%. After 72 hours of incubation at 37° C., 5% CO2 incubator, cells were analyzed for the viability using the CellTiter-Glo Luminescent Cell Viability Assay (Promega, Cat #G7570). All viability assays were performed in duplicate and Luminescence was read using an Envision (Perkin Elmer, USA). Data was analyzed using XLfit software.

| IC50 | Compound |
| --- | --- |
| < 1000 nM | CC(C)c1cnn2c(NCc3c(Cl)cccc3-n3ccc(C(=O)N4CCOCC4)n3)nc(N3CCC(N)CC3)nc12 [Compound 200] |
| < 1000 nM | CC(C)c1cnn2c(NCc3ccccc3-c3ccc4ccccc4n3)nc(NCC(O)CCN)nc12 (racemic) [Compound 240] |
| < 1000 nM | CC(C)c1cnn2c(NC(C)c3ccccc3-n3ccc(CO)n3)nc(N3CCC(N)CC3)nc12 (racemic) [Compound 220] |

Biological target: T1, CDK5/p25 (Homo sapiens, UniProt Q00535)
T1 construct: purchased Invitrogen PR8543B
T1 sequence (Q00535 whole entry): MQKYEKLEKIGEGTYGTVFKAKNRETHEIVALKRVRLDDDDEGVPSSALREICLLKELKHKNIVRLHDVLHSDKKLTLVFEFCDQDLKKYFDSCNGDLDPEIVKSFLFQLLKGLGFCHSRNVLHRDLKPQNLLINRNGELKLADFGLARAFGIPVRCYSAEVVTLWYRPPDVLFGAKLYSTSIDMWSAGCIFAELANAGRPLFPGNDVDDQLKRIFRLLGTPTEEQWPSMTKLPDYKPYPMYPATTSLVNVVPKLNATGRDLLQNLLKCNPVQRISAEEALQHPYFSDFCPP
T1 sequence (Q15078 99-307 partner limits assumed): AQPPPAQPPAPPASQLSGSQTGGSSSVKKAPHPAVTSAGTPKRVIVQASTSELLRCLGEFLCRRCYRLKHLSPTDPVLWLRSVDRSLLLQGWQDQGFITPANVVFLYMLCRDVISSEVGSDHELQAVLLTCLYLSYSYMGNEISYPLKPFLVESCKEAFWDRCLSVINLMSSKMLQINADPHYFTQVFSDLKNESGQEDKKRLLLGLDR
Assay: Enzymatic assay for CDK5 (FRET based LANCE Ultra kinase assay)
Type: biochemical
Details: read-out: CDK5 enzymatic activity (IC50 range)
Description: (§3) Enzymatic Binding Assay Protocol for CDK1, CDK2, CDK5 and CDK7
(§4) Inhibition activity of the respective compound on CDK kinase under Km value of ATP was tested in FRET based The LANCE® Ultra kinase assay (Perkin Elmer), which uses a ULight™-labeled peptide substrate and an appropriate Europium-labeled anti-phospho-antibody. Test compounds were made with DMSO solutions, and then 4-fold serial dilutions for 8 doses were prepared using automated liquid handler (POD810, LABCYTE) and 80 nL/well of diluted compound solutions were added into the 384-well plates (Greiner, Cat #784075). And then 68 nM of ULight-MBP peptide (Perkin Elmer, Cat #TRF0109-M) and 5 ul/well of ATP (Sigma, Cat #A7699) were added to the plate. After 1 min centrifugation at 1000 rpm, Purified CDKs/Cyclin complex were added following concentrations respectively. 24 uM for CDK1/Cyclin B (Invitrogen, Cat #PR4768C), 22 uM for CDK2/Cyclin A (Invitrogen, Cat #PV6290), 10 uM for CDK5/p25 (Invitrogen, Cat #PR8543B) and […] for CDK7/Cyclin H/MNAT1 (Invitrogen, Cat #PR6749B) were added to the each corresponding plate for CDK1, CDK2, CDK5 and CDK7. Incubate at 23° C. for 60 min and then Eu-labeled anti-phospho-Myelin Basic Protein (PE, Cat #TRF0201-M) and EDTA (Invitrogen, Cat #15575038) mixture in Lance Detection Buffer (Perkin Elmer, Cat #CR97100) was added in each well. After additional incubation at 23° C. for 60 min, test articles were measured the fluorescence using Envision leader (Perkin Elmer, USA) [Laser as excitation light; […] as the first and the second emission filter]. Data was analyzed using XL Fit software.

| IC50 | Compound |
| --- | --- |
| > 1000 nM | CC(C)c1cnn2c(NCc3c(Cl)cccc3-n3ccc(C(=O)N4CCOCC4)n3)nc(N3CCC(N)CC3)nc12 [Compound 200] |
| > 1000 nM | CC(C)c1cnn2c(NCc3ccccc3-c3ccc4ccccc4n3)nc(NCC(O)CCN)nc12 (racemic) [Compound 240] |
| > 1000 nM | CC(C)c1cnn2c(NC(C)c3ccccc3-n3ccc(CO)n3)nc(N3CCC(N)CC3)nc12 (racemic) [Compound 220] |

Biological target: T2, CDK1/Cyclin B (Homo sapiens, UniProt P06493)
T2 construct: purchased Invitrogen PR4768C
T2 sequence (P06493 whole entry): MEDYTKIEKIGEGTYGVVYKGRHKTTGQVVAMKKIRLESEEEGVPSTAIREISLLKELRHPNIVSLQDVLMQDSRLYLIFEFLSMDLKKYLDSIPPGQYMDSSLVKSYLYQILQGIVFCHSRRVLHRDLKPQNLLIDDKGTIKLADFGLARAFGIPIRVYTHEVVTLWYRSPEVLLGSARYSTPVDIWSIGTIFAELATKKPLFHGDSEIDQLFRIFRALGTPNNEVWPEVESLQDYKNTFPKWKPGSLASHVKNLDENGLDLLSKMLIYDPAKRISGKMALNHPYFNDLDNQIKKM
T2 sequence (P14635 whole entry partner): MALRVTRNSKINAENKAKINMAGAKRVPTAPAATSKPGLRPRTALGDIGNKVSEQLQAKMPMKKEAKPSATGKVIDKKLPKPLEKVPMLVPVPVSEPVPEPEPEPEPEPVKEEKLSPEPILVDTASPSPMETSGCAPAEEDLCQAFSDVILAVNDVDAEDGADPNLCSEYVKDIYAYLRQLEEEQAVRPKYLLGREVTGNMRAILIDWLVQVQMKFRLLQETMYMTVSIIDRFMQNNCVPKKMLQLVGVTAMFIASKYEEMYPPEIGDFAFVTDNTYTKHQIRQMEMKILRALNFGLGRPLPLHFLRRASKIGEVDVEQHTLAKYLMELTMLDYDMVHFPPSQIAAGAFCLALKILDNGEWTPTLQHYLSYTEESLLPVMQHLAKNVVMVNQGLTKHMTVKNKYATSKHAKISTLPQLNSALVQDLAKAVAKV
Assay: Enzymatic assay for CDK1 (FRET based LANCE Ultra kinase assay)
Type: biochemical
Details: read-out: CDK1 enzymatic activity (IC50 range)
Description: as §3, §4

| IC50 | Compound |
| --- | --- |
| > 1000 nM | CC(C)c1cnn2c(NCc3c(Cl)cccc3-n3ccc(C(=O)N4CCOCC4)n3)nc(N3CCC(N)CC3)nc12 [Compound 200] |
| > 1000 nM | CC(C)c1cnn2c(NCc3ccccc3-c3ccc4ccccc4n3)nc(NCC(O)CCN)nc12 (racemic) [Compound 240] |
| > 1000 nM | CC(C)c1cnn2c(NC(C)c3ccccc3-n3ccc(CO)n3)nc(N3CCC(N)CC3)nc12 (racemic) [Compound 220] |

Biological target: T3, CDK7/Cyclin H/MNAT1 (Homo sapiens, UniProt P50613)
T3 construct: purchased Invitrogen PR6749B
T3 sequence (P50613 whole entry): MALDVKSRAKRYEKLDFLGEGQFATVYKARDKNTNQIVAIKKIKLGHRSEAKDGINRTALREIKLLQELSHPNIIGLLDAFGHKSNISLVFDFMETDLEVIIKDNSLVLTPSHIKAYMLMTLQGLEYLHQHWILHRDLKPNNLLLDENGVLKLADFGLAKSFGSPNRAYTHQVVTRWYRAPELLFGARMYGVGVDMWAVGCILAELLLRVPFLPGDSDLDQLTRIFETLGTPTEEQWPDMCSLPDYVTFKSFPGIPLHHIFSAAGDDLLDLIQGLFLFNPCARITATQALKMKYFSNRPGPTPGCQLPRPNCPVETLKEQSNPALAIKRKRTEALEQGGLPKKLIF
T3 sequence (P51946 whole entry partner): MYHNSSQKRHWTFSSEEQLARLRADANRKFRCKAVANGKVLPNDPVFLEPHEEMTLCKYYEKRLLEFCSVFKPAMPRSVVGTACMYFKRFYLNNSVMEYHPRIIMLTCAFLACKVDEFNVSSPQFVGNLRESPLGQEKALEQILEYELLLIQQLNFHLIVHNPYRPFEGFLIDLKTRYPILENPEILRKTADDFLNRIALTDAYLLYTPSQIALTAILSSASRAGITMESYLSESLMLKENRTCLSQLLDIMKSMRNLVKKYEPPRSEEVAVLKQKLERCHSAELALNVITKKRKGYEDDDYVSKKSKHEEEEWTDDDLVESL
T3 sequence (P51948 whole entry partner): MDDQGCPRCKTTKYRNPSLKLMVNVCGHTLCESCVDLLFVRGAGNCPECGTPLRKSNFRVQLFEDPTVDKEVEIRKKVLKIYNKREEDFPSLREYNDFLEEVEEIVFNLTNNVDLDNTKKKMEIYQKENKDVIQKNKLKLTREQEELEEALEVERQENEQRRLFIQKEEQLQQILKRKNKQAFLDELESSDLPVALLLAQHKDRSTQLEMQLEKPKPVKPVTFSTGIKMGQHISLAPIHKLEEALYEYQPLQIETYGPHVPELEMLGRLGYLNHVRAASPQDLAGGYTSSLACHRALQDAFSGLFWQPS
Assay: Enzymatic assay for CDK7 (FRET based LANCE Ultra kinase assay)
Type: biochemical
Details: CDK7 over CDK1
Description: as §3
Inhibition activity of the respective compound on CDK kinase under Km value of ATP was tested in FRET based The LANCE® Ultra kinase assay (Perkin Elmer), which uses a ULight™-labeled peptide substrate and an appropriate Europium-labeled anti-phospho-antibody. […] After 1 min centrifugation at 1000 rpm, Purified CDKs/Cyclin complex were added following concentrations respectively. […] Data was analyzed using XL Fit software.

| CDK1/CDK7: Selectivity of CDK7 inhibition over CDK1 inhibition | Compound |
| --- | --- |
| A (A=greater than 200 fold) | CC(C)c1cnn2c(NCc3c(Cl)cccc3-n3ccc(C(=O)N4CCOCC4)n3)nc(N3CCC(N)CC3)nc12 [Compound 200] |
| A (A=greater than 200 fold) | CC(C)c1cnn2c(NCc3ccccc3-c3ccc4ccccc4n3)nc(NCC(O)CCN)nc12 (racemic) [Compound 240] |
| A (A=greater than 200 fold) | CC(C)c1cnn2c(NC(C)c3ccccc3-n3ccc(CO)n3)nc(N3CCC(N)CC3)nc12 (racemic) [Compound 220] |

Same assay, conditions: CDK7 over CDK2

| CDK2/CDK7: Selectivity of CDK7 inhibition over CDK2 inhibition | Compound |
| --- | --- |
| A (A=greater than 200 fold) | CC(C)c1cnn2c(NCc3c(Cl)cccc3-n3ccc(C(=O)N4CCOCC4)n3)nc(N3CCC(N)CC3)nc12 [Compound 200] |
| A (A=greater than 200 fold) | CC(C)c1cnn2c(NCc3ccccc3-c3ccc4ccccc4n3)nc(NCC(O)CCN)nc12 (racemic) [Compound 240] |
| A (A=greater than 200 fold) | CC(C)c1cnn2c(NC(C)c3ccccc3-n3ccc(CO)n3)nc(N3CCC(N)CC3)nc12 (racemic) [Compound 220] |

Same assay, conditions: CDK7 over CDK5

| CDK5/CDK7: Selectivity of CDK7 inhibition over CDK5 inhibition | Compound |
| --- | --- |
| A (A=greater than 200 fold) | CC(C)c1cnn2c(NCc3c(Cl)cccc3-n3ccc(C(=O)N4CCOCC4)n3)nc(N3CCC(N)CC3)nc12 [Compound 200] |
| A (A=greater than 200 fold) | CC(C)c1cnn2c(NCc3ccccc3-c3ccc4ccccc4n3)nc(NCC(O)CCN)nc12 (racemic) [Compound 240] |
| A (A=greater than 200 fold) | CC(C)c1cnn2c(NC(C)c3ccccc3-n3ccc(CO)n3)nc(N3CCC(N)CC3)nc12 (racemic) [Compound 220] |

Same assay, conditions: read-out: CDK7 enzymatic activity (IC50 range)

| IC50 | Compound |
| --- | --- |
| < 100 nM | CC(C)c1cnn2c(NCc3c(Cl)cccc3-n3ccc(C(=O)N4CCOCC4)n3)nc(N3CCC(N)CC3)nc12 [Compound 200] |
| < 100 nM | CC(C)c1cnn2c(NCc3ccccc3-c3ccc4ccccc4n3)nc(NCC(O)CCN)nc12 (racemic) [Compound 240] |
| < 100 nM | CC(C)c1cnn2c(NC(C)c3ccccc3-n3ccc(CO)n3)nc(N3CCC(N)CC3)nc12 (racemic) [Compound 220] |

Test system: HCT116
Assay: Cellular HCT116 viability assay (CellTiter-Glo, 72 hours)
Type: cell-based
Details: Homo sapiens, HCT-116
Description: as §1, §2

| IC50 | Compound |
| --- | --- |
| < 1000 nM | CC(C)c1cnn2c(NCc3c(Cl)cccc3-n3ccc(C(=O)N4CCOCC4)n3)nc(N3CCC(N)CC3)nc12 [Compound 200] |
| < 1000 nM | CC(C)c1cnn2c(NCc3ccccc3-c3ccc4ccccc4n3)nc(NCC(O)CCN)nc12 (racemic) [Compound 240] |
| < 1000 nM | CC(C)c1cnn2c(NC(C)c3ccccc3-n3ccc(CO)n3)nc(N3CCC(N)CC3)nc12 (racemic) [Compound 220] |

Test system: H460
Assay: Cellular H460 viability assay (CellTiter-Glo, 72 hours)
Type: cell-based
Details: Homo sapiens, NCI-H460
Description: as §1, §2

| IC50 | Compound |
| --- | --- |
| < 1000 nM | CC(C)c1cnn2c(NCc3c(Cl)cccc3-n3ccc(C(=O)N4CCOCC4)n3)nc(N3CCC(N)CC3)nc12 [Compound 200] |
| < 1000 nM | CC(C)c1cnn2c(NCc3ccccc3-c3ccc4ccccc4n3)nc(NCC(O)CCN)nc12 (racemic) [Compound 240] |
| < 1000 nM | CC(C)c1cnn2c(NC(C)c3ccccc3-n3ccc(CO)n3)nc(N3CCC(N)CC3)nc12 (racemic) [Compound 220] |

Biological target: T4, CDK2/Cyclin A (Homo sapiens, UniProt P24941)
T4 construct: purchased Invitrogen PV6290
Assay: Enzymatic assay for CDK2 (FRET based LANCE Ultra kinase assay)
Type: biochemical
Details: read-out: CDK2 enzymatic activity (IC50 range)
Description: as §3, §4

| IC50 | Compound |
| --- | --- |
| > 1000 nM | CC(C)c1cnn2c(NCc3c(Cl)cccc3-n3ccc(C(=O)N4CCOCC4)n3)nc(N3CCC(N)CC3)nc12 [Compound 200] |
| > 1000 nM | CC(C)c1cnn2c(NCc3ccccc3-c3ccc4ccccc4n3)nc(NCC(O)CCN)nc12 (racemic) [Compound 240] |
| > 1000 nM | CC(C)c1cnn2c(NC(C)c3ccccc3-n3ccc(CO)n3)nc(N3CCC(N)CC3)nc12 (racemic) [Compound 220] |
